Structures can show the parent of a compound that is named as a salt.
The compounds below were run against T1, MCH receptor (Homo sapiens, UniProt Q99705) (assay: Receptor binding assay with Radiolabelled MCH Ligand). Conditions: class by percent of control at 10^-7 M or IC50.
Parameters: expressed in transfected cells; host or cells: 293 cells (human kidney, ATCC), transient transfection; crude membranes
How it was run: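 Membranes from 293 cells transiently transfected with human MCH receptor competed test compounds against a radiolabelled MCH ligand in Tris-HCl pH 7.4 with MgCl2 and EDTA for 60–120 min at room temperature. Filtration and scintillation counting followed, with cold MCH defining nonspecific binding. IC50 came from logit-log plots of %B/B0, and Ki from the Cheng-Prusoff equation.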

T1 sequence (Q99705 whole entry): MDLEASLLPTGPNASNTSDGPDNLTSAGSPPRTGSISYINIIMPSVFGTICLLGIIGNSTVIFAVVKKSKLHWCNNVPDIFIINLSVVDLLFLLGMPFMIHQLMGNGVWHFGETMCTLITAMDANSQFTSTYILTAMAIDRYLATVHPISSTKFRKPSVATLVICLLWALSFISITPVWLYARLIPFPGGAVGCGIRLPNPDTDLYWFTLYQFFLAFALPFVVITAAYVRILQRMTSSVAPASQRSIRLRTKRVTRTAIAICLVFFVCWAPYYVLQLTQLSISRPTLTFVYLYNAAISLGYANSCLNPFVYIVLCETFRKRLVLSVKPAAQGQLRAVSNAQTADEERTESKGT

| Structure (SMILES) | class |
| --- | --- |
| Cc1nc(N[C@H]2CC[C@@H](NC(=O)c3scc(S(=O)(=O)c4ccc(Cl)cc4)c3C)CC2)cc(N(C)C)n1 [compound 216] | 3 (Class 3: The value of percent of control at 10^−7 M was more than 60% or the value of IC50 was more than 200 nM.) |
| Cc1nc(N[C@H]2CC[C@@H](NC(=O)c3ccc(F)c(Cl)c3)CC2)cc(N(C)C)n1 [compound 256, 3-chloro-N-(cis-4-{[6-(dimethylamino)-2-methylpyrimidin-4-yl]amino}cyclohexyl)-4-fluorobenzamide] | 1 (Class 1: The value of percent of control at 10^−7 M was less than 40% or the value of IC50 was less than 50 nM.) |
| Cc1nc(N[C@H]2CC[C@@H](NC(=O)C(C)c3ccc(C(=O)c4cccs4)cc3)CC2)cc(N(C)C)n1 (relative stereo) [compound 312] | 3 (Class 3: The value of percent of control at 10^−7 M was more than 60% or the value of IC50 was more than 200 nM.) |
| Cc1nc(N[C@H]2CC[C@@H](NS(=O)(=O)c3cccn3-c3ncc(C(F)(F)F)cc3Cl)CC2)cc(N(C)C)n1 [compound 516] | 3 (Class 3: The value of percent of control at 10^−7 M was more than 60% or the value of IC50 was more than 200 nM.) |
| Cc1nc(N[C@H]2CC[C@@H](NCc3ccc(F)c(Cl)c3)CC2)cc(N(C)C)n1 [compound 401] | 3 (Class 3: The value of percent of control at 10^−7 M was more than 60% or the value of IC50 was more than 200 nM.) |
| CCOC(=O)N[C@H]1CC[C@@H](Nc2cc(N(C)C)nc(C)n2)CC1 [compound 459] | 3 (Class 3: The value of percent of control at 10^−7 M was more than 60% or the value of IC50 was more than 200 nM.) |
| Cc1nc(N[C@H]2CC[C@@H](NC(=O)c3cc(C(C)(C)C)nn3Cc3ccc(Cl)cc3Cl)CC2)cc(N(C)C)n1 [compound 270] | 3 (Class 3: The value of percent of control at 10^−7 M was more than 60% or the value of IC50 was more than 200 nM.) |
| CCCCCCCCS(=O)(=O)N[C@H]1CC[C@@H](Nc2cc(N(C)C)nc(C)n2)CC1 [compound 480] | 3 (Class 3: The value of percent of control at 10^−7 M was more than 60% or the value of IC50 was more than 200 nM.) |
| Cc1nc(NC2CCC(NC(=O)C(Cc3ccccc3)NS(=O)(=O)c3cccc4ccccc34)CC2)cc(N(C)C)n1 (centres unmarked) [compound 260] | 3 (Class 3: The value of percent of control at 10^−7 M was more than 60% or the value of IC50 was more than 200 nM.) |
| Cc1nc(N[C@H]2CC[C@@H](NCc3ccc(C(C)(C)C)cc3)CC2)cc(N(C)C)n1 [compound 356] | 3 (Class 3: The value of percent of control at 10^−7 M was more than 60% or the value of IC50 was more than 200 nM.) |
| CCOc1ccccc1NC(=O)N[C@H]1CC[C@@H](Nc2cc(N(C)C)nc(C)n2)CC1 [compound 428] | 3 (Class 3: The value of percent of control at 10^−7 M was more than 60% or the value of IC50 was more than 200 nM.) |
| Cc1nc(N[C@H]2CC[C@@H](NC(=O)c3cccs3)CC2)cc(N(C)C)n1 [compound 243] | 3 (Class 3: The value of percent of control at 10^−7 M was more than 60% or the value of IC50 was more than 200 nM.) |
| Cc1nc(N[C@H]2CC[C@@H](NC(=O)c3ccc(OCc4ccccc4)cc3)CC2)cc(N(C)C)n1 [compound 329] | 3 (Class 3: The value of percent of control at 10^−7 M was more than 60% or the value of IC50 was more than 200 nM.) |
| Cc1nc(N[C@H]2CC[C@@H](NC(=O)CCCc3ccccc3)CC2)cc(N(C)C)n1 [compound 337] | 3 (Class 3: The value of percent of control at 10^−7 M was more than 60% or the value of IC50 was more than 200 nM.) |
| Cc1nc(N[C@H]2CC[C@@H](NC(=O)Cc3ccc(SC(F)(F)F)cc3)CC2)cc(N(C)C)n1 [compound 315] | 3 (Class 3: The value of percent of control at 10^−7 M was more than 60% or the value of IC50 was more than 200 nM.) |
| Cc1nc(N[C@H]2CC[C@@H](NC(=O)c3ccc(I)o3)CC2)cc(N(C)C)n1 [compound 285, N-(cis-4-{[6-(dimethylamino)-2-methylpyrimidin-4-yl]amino}cyclohexyl)-5-iodo-2-furamide] | 3 (Class 3: The value of percent of control at 10^−7 M was more than 60% or the value of IC50 was more than 200 nM.) |
| Cc1nc(N[C@H]2CC[C@@H](NC(=O)C3CC(=O)N(Cc4cccs4)C3)CC2)cc(N(C)C)n1 (relative stereo) [compound 282] | 3 (Class 3: The value of percent of control at 10^−7 M was more than 60% or the value of IC50 was more than 200 nM.) |
| Cc1nc(N[C@H]2CC[C@@H](NC(=O)C(C)c3ccc(N4Cc5ccccc5C4=O)cc3)CC2)cc(N(C)C)n1 (relative stereo) [compound 286] | 3 (Class 3: The value of percent of control at 10^−7 M was more than 60% or the value of IC50 was more than 200 nM.) |
| Cc1nc(N[C@H]2CC[C@@H](NC(=O)c3ccc(F)cc3C(F)(F)F)CC2)cc(N(C)C)n1 [compound 249] | 3 (Class 3: The value of percent of control at 10^−7 M was more than 60% or the value of IC50 was more than 200 nM.) |
| Cc1nc(N[C@H]2CC[C@@H](NS(=O)(=O)c3cccc(OC(F)(F)F)c3)CC2)cc(N(C)C)n1 [compound 492] | 3 (Class 3: The value of percent of control at 10^−7 M was more than 60% or the value of IC50 was more than 200 nM.) |
| Cc1nc(N[C@H]2CC[C@@H](NC(=O)CCCc3ccc4c(c3)OCCO4)CC2)cc(N(C)C)n1 [compound 341] | 3 (Class 3: The value of percent of control at 10^−7 M was more than 60% or the value of IC50 was more than 200 nM.) |
| COc1ccc(CC(=O)N[C@H]2CC[C@@H](Nc3cc(N(C)C)nc(C)n3)CC2)cc1OC [compound 245] | 3 (Class 3: The value of percent of control at 10^−7 M was more than 60% or the value of IC50 was more than 200 nM.) |
| Cc1nc(N[C@H]2CC[C@@H](NC(=O)CCCCc3cccs3)CC2)cc(N(C)C)n1 [compound 316] | 3 (Class 3: The value of percent of control at 10^−7 M was more than 60% or the value of IC50 was more than 200 nM.) |

The compounds below were run against T1, MCH receptor (assay: FLIPR/FDSS6000 functional assay: intracellular Ca2+ changes evoked by MCH). Conditions: class by percent of control at 10^−7 M or by IC50; antagonist activity, 50 nM of MCH; read-out: class.
Type: cell-based
Description: Subsequently, a functional based assay was used to confirm the lead hits, referred to as FLIPR™ (the Fluorometric Imaging Plate Reader) and FDSS6000™ (Functional Drug Screening System). This assay utilized a non-endogenous, constitutively active version of the MCH receptor.
The FLIPR and FDSS assays are able to detect intracellular Ca^2+ concentration in cells, which can be utilized to assess receptor activation and determine whether a candidate compound is an, for example, antagonist, inverse agonist or agonist to a Gq-coupled receptor. The concentration of free Ca^2+ in the cytosol of any cell is extremely low, whereas its concentration in the extracellular fluid and endoplasmic reticulum (ER) is very high. Thus, there is a large gradient tending to drive Ca^2+ into the cytosol across both the plasma membrane and ER. The FLIPR™ and FDSS6000™ systems (Molecular Devices Corporation, HAMAMATSU Photonics K.K.) are designed to perform functional cell-based assays, such as the measurement of intracellular calcium for high-throughput screening. The measurement of fluorescent is associated with calcium release upon activation of the Gq-coupled receptors.
Fluorometric Imaging Plate Reader system was used to allow for rapid, kinetic measurements of intracellular fluorescence in 96 well microplates (or 384 well microplates). Simultaneous measurements of fluorescence in all wells can be made by FLIPR or FDSS6000™ every second with high sensitivity and precision. These systems are ideal for measuring cell-based functional assays such as monitoring the intracellular calcium fluxes that occur within seconds after activation of the Gq coupled receptor.
Briefly, the cells are seeded into 96 well at 5.5×10^4 cells/well with complete culture media (Dulbecco's Modified Eagle Medium with 10% fetal bovine serum, 2 mM L-glutamine, 1 mM sodium pyruvate and 0.5 mg/mL G418, pH 7.4) for the assay next day. On the day of assay, the media is removed and the cells are incubated with 100 μl of loading buffer (4 μM Fluo-4-AM in complete culture media containing 2.5 mM Probenicid, 0.5 mg/ml and 0.2% bovine serum albumin) in 5% CO2 incubator at 37° C. for 1 hr. The loading buffer is removed, and the cells are washed with wash buffer (Hank's Balanced Salt Solution containing 2.5 mM Probenicid, 20 mM HEPES, 0.5 mg/mL and 0.2% bovine serum albumin, pH 7.4). One hundred fifty μl of wash buffer containing various concentrations of test compound is added to the cells, and the cells are incubated in 5% CO2 incubator at 37° C. for 30 min. Fifty μl of wash buffer containing various concentration of MCH are added to each well, and transient changes in [Ca^2+]i evoked by MCH are monitored using the FLIPR or FDSS in 96 well plates at Ex. 488 nm and Em. 530 nm for 290 second. When antagonist activity of compound is tested, 50 nM of MCH is used.
Use of FLIPR™ and FDSS6000™ can be accomplished by following manufacturer's instruction (Molecular Device Corporation and HAMAMATSU Photonics K.K.).

| IC50 [nM] | Structure (SMILES) |
| --- | --- |
| < 50 | Cc1nc(N[C@H]2CC[C@@H](NC(=O)c3ccc(F)c(F)c3)CC2)cc(N(C)C)n1 [Example 5, N-(cis-4-{[6-(Dimethylamino)-2-methylpyrimidin-4-yl]amino}cyclohexyl)-3,4-difluorobenzamide hydrochloride] |
| 50 to 200 | CN(C)c1cc(N[C@H]2CC[C@@H](NC(=O)c3ccc(F)c(F)c3)CC2)ncn1 [Example 2, N-(cis-4-{[6-(1-Dimethylamino)pyrimidin-4-yl]amino}cyclohexyl)-3,4-difluorobenzamide hydrochloride] |
| 50 to 200 | Cc1nc(N[C@H]2CC[C@@H](NC(=O)c3cc(C(F)(F)F)cc(C(F)(F)F)c3)CC2)cc(N(C)C)n1 [Example 27, N-(cis-4-{([6-(Dimethylamino)-2-methylpyrimidin-4-yl]amino}cyclohexyl)-3,5-bis-(trifluoromethyl)benzamide hydrochloride] |
| > 200 | Cc1nc(N[C@H]2CC[C@@H](NC(=O)c3ccc(F)c(Cl)c3)CC2)cc(N2CCCCC2)n1 [Example 37, 3-Chloro-4-fluoro-N-{cis-4-[(2-methyl-6-piperidin-1-ylpyrimidin-4-yl)amino]cyclohexyl}-benzamide hydrochloride] |
| 50 to 200 | Cc1cc(N[C@H]2CC[C@@H](NC(=O)c3ccc(F)c(Cl)c3)CC2)nc(N(C)C)n1 [Example 45, 3-Chloro-N-(cis-4-{([2-(dimethylamino)-6-methylpyrimidin-4-yl]amino}cyclohexyl)-4-fluorobenzamide hydrochloride] |
| 50 to 200 | Cc1cc(N[C@H]2CC[C@@H](NC(=O)c3ccc(F)c(F)c3)CC2)nc(N(C)C)n1 [Example 43, N-(cis-4-{[2-(Dimethylamino)-6-methylpyrimidin-4-yl]amino}cyclohexyl)-3,4-difluorobenzamide hydrochloride] |
